These results are taken from publication PMC9826610 (Journal of medicinal chemistry, 2022).

≈ marks a conversion by molar mass, not a printed value. Read-outs that look alike come from different tables or passages of the source.

Data set [1] deals with methicillin-resistant S. aureus (FPR3757). The data set is described as follows: MIC against methicillin-resistant S. aureus. The format is cell-based, Staphylococcus aureus. Conditions: for MIC: complete inhibition of observable growth, Mueller–Hinton broth.
Data set [2] deals with sheep erythrocytes. Conditions: washed sheep erythrocytes; at 32 μg/mL; compared to Triton X-100 (100% lysis).
The subject of data set [3] is S. aureus (strain USA300). Description: Transmission electron microscopy of treated MRSA. Conditions: 1× MIC. The format is cell-based.
Data set [4] concerns S. aureus (strain COL). The data set is described as follows: Fluorescence microscopy of membrane, cell wall and DNA in MRSA. The data set is classed as cell-based. Conditions: 1× MIC, 30 min.
Data set [5] deals with MRSA. Description: MRSA MIC in the presence of serum. The format is cell-based. The following applies: Staphylococcus aureus.
Data set [6] relates to C. albicans. Description: Antimicrobial susceptibility panel: MIC against C. albicans. The data set is classed as cell-based. The following applies: Candida albicans, SC5314.
Data set [7] can be described thus: Kinetic aqueous solubility by LC-MS/MS. Conditions: pH 7.4.
The nature of data set [8]: Single-dose in vivo pharmacokinetics. The following applies: mice.

Compound `Fc1ccc2c(Nc3ccc(Cl)c(Cl)c3)cc(C(F)(F)F)nc2c1` [Compound 74] displayed an MIC in data set [1] (Staphylococcus aureus) of 0.5 to 2 µg/mL (≈ 1.33 to 5.33 µM). Consider `FC(F)(F)c1ccc2c(Nc3cc(Cl)ccn3)cc(C(F)(F)F)nc2c1` [Compound 48], for which the “loss of activity (MIC) relative to 31” value in data set [1] was 8 fold. Compound `Fc1ccc2nc(C(F)(F)F)cc(Nc3ccc(C(F)(F)F)cn3)c2c1F` [Compound 77] gave an MIC in data set [1] (Staphylococcus aureus) of 16 to 32 µg/mL (≈ 40.7 to 81.4 µM). In data set [1] (Staphylococcus aureus), `Fc1cccc(Nc2cc(C(F)(F)F)nc3cc(C(F)(F)F)ccc23)c1` [Compound 18] registered an MIC of 4 to 16 µg/mL (≈ 10.7 to 42.8 µM).

In data set [1] (Staphylococcus aureus), `CCc1ccc2c(O)cc(C(F)(F)F)nc2c1` [Compound 8] came in with a minimal inhibitory concentration (MIC) of 320 to 640 µg/mL (≈ 1330 to 2650 µM). Take `Fc1cc2nc(C(F)(F)F)cc(Nc3ccc(C(F)(F)F)cn3)c2cc1F` [Compound 78]: in data set [2], the hemolysis result is “hemolysis”. In data set [1] (Staphylococcus aureus), `Oc1cc(C(F)(F)F)nc2c(C(F)(F)F)cccc12` [Compound 4] showed an MIC of 2 to 4 µg/mL (≈ 7.11 to 14.2 µM).

With `FC(F)(F)c1ccc2c(Nc3nccs3)cc(C(F)(F)F)nc2c1` [Compound 55], the MIC in data set [1] (Staphylococcus aureus) was in the range of 1 to 2 µg/mL (≈ 2.75 to 5.51 µM). Still for that read-out and setting: the figure for `O=c1cc(C(F)(F)F)[nH]c2cc(C(F)(F)F)ccc12` [Compound 2, 2,7-Bis-(trifluoromethyl)quinolin-4-ol] is 4 to 8 µg/mL (≈ 14.2 to 28.5 µM). In the case of `FC(F)(F)c1ccc(Nc2cc(N3CCNCC3)nc3cc(C(F)(F)F)ccc23)nc1` [Compound 105, 2-(Piperazin-1-yl)-7-(trifluoromethyl)-4-{[5-(trifluoro-methyl)-pyridin-2-yl]amino}quinoline], the values for the MIC in data set [1] (Staphylococcus aureus) and in data set [1] were 0.5 to 1 µg/mL (≈ 1.13 to 2.27 µM) and 0.5 to 1 µg/mL, respectively. As for `O=c1cc(C(F)(F)F)[nH]c2cc(C(F)(F)F)cc(Nc3ccc(F)cn3)c12` [Compound 114], in data set [1] (Staphylococcus aureus), the MIC is 0.125 to 2 µg/mL (≈ 0.319 to 5.11 µM). Same read-out and setting: the figure for `CSc1cccc(Nc2cc(C(F)(F)F)nc3cc(C(F)(F)F)ccc23)c1` [Compound 24] is 0.25 to 0.5 µg/mL (≈ 0.621 to 1.24 µM); for `Fc1ccc(Nc2nc(C(F)(F)F)nc3nc(C(F)(F)F)ccc23)cc1F` [Compound 94, N-(3,4-Difluorophenyl)-2,7-bis(trifluoromethyl)pyrido[2,3-d]-pyrimidin-4-amine] it is no less than 32 µg/mL.

For `O=c1cc(C(F)(F)F)[nH]c2cc(C(F)(F)F)cc(N[C@H]3CC[C@H](C(F)(F)F)CC3)c12` [Compound 120], the “cell morphology by TEM” value in data set [3] is listed as “mesosome-like membrane inclusions”. In data set [4], the “FM 4–64 membrane staining by fluorescence microscopy” value is “membrane defects”. Turning to `FC(F)(F)c1ccc2c(Nc3ccc(C(F)(F)F)nc3)cc(C(F)(F)F)nc2c1` [Compound 49], the minimum inhibitory concentration (MIC) entry in data set [1] is listed as “completely abolished activity”. For the compound `FC(F)(F)c1ccc(Nc2cc(C(F)(F)F)nc3cc(C(F)(F)F)ccc23)nc1` [Compound 31, 2,7-Bis(trifluoromethyl)-4-[5-(trifluoromethyl)pyridin-2-yl-amino]quinoline], the “cell morphology by TEM” value in data set [3] was “mesosome-like membrane inclusions”. In addition, the MIC in data set [5] (read-out: MIC + 10% FBS) was in the range of 4 to 8 µg/mL. With `FC(F)(F)c1ccc2c(Nc3cccc(Cl)c3)cc(C(F)(F)F)nc2c1` [Compound 16], the MIC in data set [1] (Staphylococcus aureus) is 0.125 to 0.25 µg/mL (≈ 0.32 to 0.64 µM).

As to `Fc1ccc2c(Nc3ccc(C(F)(F)F)cn3)cc(C(F)(F)F)nc2c1` [Compound 76], the MIC in data set [1] (Staphylococcus aureus) is 0.5 to 2 µg/mL (≈ 1.33 to 5.33 µM).

As for `O=c1cc(C(F)(F)F)[nH]c2cc(F)cc(Nc3ccc(C(F)(F)F)cn3)c12` [Compound 122], in data set [4], the “FM 4–64 membrane staining by fluorescence microscopy” value is on record as “membrane defects”. In the case of `Fc1ccc(Nc2cc(C(F)(F)F)nc3cc(C(F)(F)F)ccc23)cc1F` [Compound 21], the MIC in data set [1] (Staphylococcus aureus) was 0.125 to 0.25 µg/mL (≈ 0.319 to 0.637 µM).

In turn, `FC(F)(F)Oc1ccc2c(Nc3ccc(C(F)(F)F)cn3)cc(C(F)(F)F)nc2c1` [Compound 34] came in with an MIC in data set [1] (Staphylococcus aureus) of 0.5 to 1 µg/mL (≈ 1.13 to 2.27 µM).

Turning to `COc1ccc2c(O)cc(C(F)(F)F)nc2c1` [Compound 9], the MIC in data set [1] (Staphylococcus aureus) was in the range of 320 to 640 µg/mL (≈ 1320 to 2630 µM).

For the compound `FC(F)(F)c1ccc2c(Nc3ccc(Cl)cc3)cc(C(F)(F)F)nc2c1` [Compound 17], the MIC in data set [1] (Staphylococcus aureus) fell in the range of 0.125 to 0.25 µg/mL (≈ 0.32 to 0.64 µM). Still for that read-out and setting: next, `FC(F)(F)c1ccc(Nc2cc(N3CCNCC3)c3ccc(C(F)(F)F)cc3n2)nc1` [Compound 106]: 4 to 8 µg/mL (≈ 9.06 to 18.1 µM); `FC(F)(F)Oc1cccc(Nc2cc(C(F)(F)F)nc3cc(OC(F)(F)F)ccc23)c1` [Compound 33]: 0.5 to 1 µg/mL (≈ 1.1 to 2.19 µM). Still for that read-out and setting: next, `FC(F)(F)Oc1ccc2c(Nc3ccc(Cl)c(Cl)c3)cc(C(F)(F)F)nc2c1` [Compound 32]: 0.5 to 1 µg/mL (≈ 1.13 to 2.27 µM); `FC(F)(F)c1ccc(Nc2cc(N3CCOCC3)c3ccc(C(F)(F)F)cc3n2)nc1` [Compound 108]: 4 to 8 µg/mL (≈ 9.04 to 18.1 µM). The same measure, in the same setting: the figure for `Oc1cc(C(F)(F)F)nc2cc(OC(F)(F)F)ccc12` [Compound 3] is 4 to 8 µg/mL (≈ 13.5 to 26.9 µM). With `O=c1cc(C(F)(F)F)[nH]c2cc(C(F)(F)F)cc(Nc3ccc(C(F)(F)F)cn3)c12` [Compound 111, 5-[(5-Trifluoromethylpyridin-2-yl)amino]-2,7-bis-(trifluoromethyl)quinolin-4(1H)-one], the “cell morphology by TEM” value in data set [3] was “mesosome-like membrane inclusions”. The MIC in data set [6] was 256 µg/mL (≈ 580 µM); in data set [5] (read-out: MIC + 10% human serum) it was 4 to 8 µg/mL; in data set [5] (read-out: MIC + 10% mouse serum), 4 to 8 µg/mL; in data set [5] (read-out: MIC + 30% FBS), 4 to 8 µg/mL. For the same compound, in data set [7], the solubility at 6 h is 2.4 ± 0.4 ng/mL (≈ 0.00544 µM). Further, the “time total plasma concentrations stay above the MIC (<0.0625 μg/mL)” value in data set [8] (following i.v. dosing at 0.5 mg/kg) and in data set [8] (following oral dosing at 10 mg/kg) was roughly 9 h throughout. In addition, the hemolysis result in data set [2] is recorded as “devoid of hemolytic activity”.

`CSc1ccc2c(O)cc(C(F)(F)F)nc2c1` [Compound 10]: the MIC in data set [1] (Staphylococcus aureus) lay in the range of 320 to 640 µg/mL (≈ 1230 to 2470 µM).
